Where “and” joins values, the source holds several entries; their conditions need not be identical. Equal entries are not always repeated.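 Protocol summary: plate cells (96-well), add compound at 5 concentrations, incubate 48 h, interpolate endpoints linearly. GI50 = concentration required for 50% inhibition of growth.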 Calls of active or inactive are those of the source. No stated cut-off is given here; in the data, active = GI50 up to about 1.1 µM and inactive = higher.
Tests used:
Test in all cases: inhibition of tumour cell growth, NCI panel, 48 h
MOLT-4 = system: MOLT-4
Malme-3M = system: Malme-3M
RPMI-8226 = system: RPMI-8226
OVCAR-4 = system: OVCAR-4
COLO 205 = system: COLO 205
DLD-1 = system: DLD-1
SF-295 = system: SF-295
TK-10 = system: TK-10
EKVX = system: EKVX
IGROV-1 = system: IGROV-1
LXFL 529 = system: LXFL 529
HOP-18 = system: HOP-18
SK-MEL-5 = system: SK-MEL-5
SN12C = system: SN12C
OVCAR-3 = system: OVCAR-3
K562 = system: K562
HOP-92 = system: HOP-92
UO-31 = system: UO-31
CAKI-1 = system: CAKI-1
UACC-257 = system: UACC-257
DMS-273 = system: DMS-273
A498 = system: A498
NCI-H460 = system: NCI-H460
RXF 393 = system: RXF 393
786-0 = system: 786-0
CCRF-CEM = system: CCRF-CEM
HCT-116 = system: HCT-116
M14 = system: M14
SR = system: SR
ACHN = system: ACHN
NCI-H522 = system: NCI-H522
SF-539 = system: SF-539
SW-620 = system: SW-620
A549 = system: A549
KM-20L2 = system: KM-20L2
RXF 631 = system: RXF 631
OVCAR-8 = system: OVCAR-8
UACC-62 = system: UACC-62
SF-268 = system: SF-268
SK-MEL-28 = system: SK-MEL-28
NCI-H226 = system: NCI-H226
SNB-78 = system: SNB-78
HL-60 = system: HL-60
HCC 2998 = system: HCC 2998
SK-OV-3 = system: SK-OV-3
NCI-H23 = system: NCI-H23
HT-29 = system: HT-29
SNB-19 = system: SNB-19
MCF7 = system: MCF7
LOX IMVI = system: LOX IMVI
SNB-75 = system: SNB-75
SK-MEL-2 = system: SK-MEL-2
NCI/ADR-RES = system: NCI/ADR-RES
HOP-62 = system: HOP-62
DMS-114 = system: DMS-114
XF498 = system: XF498
M19-MEL = system: M19-MEL
U-251 = system: U-251
KM12 = system: KM12
HCT-15 = system: HCT-15

SMILES: CC(C)(C)OC(=O)N1N=NC2C3CC(=O)C(O3)C21 (stereo unspecified)
- GI50 (MOLT-4): > 100 µM (inactive)
- GI50 (Malme-3M): > 100 µM (inactive)
- GI50 (RPMI-8226): > 100 µM (inactive)
- GI50 (OVCAR-4): > 10 µM (inactive)
- GI50 (COLO 205): > 10 µM (inactive)
- GI50 (DLD-1): > 100 µM (inactive)
- GI50 (SF-295): > 100 µM (inactive)
- GI50 (TK-10): > 100 µM (inactive)
- GI50 (EKVX): > 100 µM (inactive)
- GI50 (IGROV-1): > 100 µM (inactive)
- GI50 (LXFL 529): > 100 µM (inactive)
- GI50 (HOP-18): > 100 µM (inactive)
- GI50 (SK-MEL-5): > 100 µM (inactive)
- GI50 (SN12C): > 100 µM (inactive)
- GI50 (OVCAR-3): > 100 µM (inactive)
- GI50 (K562): > 100 µM (inactive)
- GI50 (HOP-92): > 100 µM (inactive)
- GI50 (UO-31): > 100 µM (inactive)
- GI50 (CAKI-1): > 100 µM (inactive)
- GI50 (UACC-257): > 10 µM (inactive)
- GI50 (DMS-273): > 100 µM (inactive)
- GI50 (A498): > 100 µM (inactive)
- GI50 (NCI-H460): > 100 µM (inactive)
- GI50 (RXF 393): > 100 µM (inactive)
- GI50 (786-0): > 100 µM (inactive)
- GI50 (CCRF-CEM): > 100 µM (inactive)
- GI50 (HCT-116): > 10 µM (inactive)
- GI50 (M14): > 100 µM (inactive)
- GI50 (SR): > 100 µM (inactive)
- GI50 (ACHN): > 100 µM (inactive)
- GI50 (NCI-H522): > 100 µM (inactive)
- GI50 (SF-539): > 100 µM (inactive)
- GI50 (SW-620): > 100 µM (inactive)
- GI50 (A549): > 100 µM (inactive)
- GI50 (KM-20L2): > 100 µM (inactive)
- GI50 (RXF 631): > 100 µM (inactive)
- GI50 (OVCAR-8): 86.1 µM (inactive)

SMILES: NC(=O)C#CC(N)=O
- GI50 (UACC-62): 19.4 µM (inactive) and 14.6 µM (inactive)
- GI50 (SF-268): 60.3 µM (inactive) and 38.9 µM (inactive)
- GI50 (Malme-3M): 13.1 µM (inactive) and 7.53 µM (inactive)
- GI50 (RPMI-8226): 2.14 µM (inactive)
- GI50 (SK-MEL-28): 7.08 µM (inactive) and 14 µM (inactive)
- GI50 (NCI-H226): > 100 µM (inactive) and 63 µM (inactive)
- GI50 (SF-295): 13.8 µM (inactive) and 25.2 µM (inactive)
- GI50 (TK-10): 20.8 µM (inactive)
- GI50 (SNB-78): 54 µM (inactive) and 47.3 µM (inactive)
- GI50 (IGROV-1): > 100 µM (inactive) and 67.5 µM (inactive)
- GI50 (HL-60): 2.52 µM (inactive) and 1.71 µM (inactive)
- GI50 (HCC 2998): > 100 µM (inactive) and 58.3 µM (inactive)
- GI50 (SK-OV-3): > 100 µM (inactive) and 108 µM (inactive)
- GI50 (LXFL 529): 64.9 µM (inactive)
- GI50 (HOP-18): 18.2 µM (inactive) and 28.2 µM (inactive)
- GI50 (NCI-H23): 58.5 µM (inactive) and > 91.2 µM (inactive)
- GI50 (K562): 2.91 µM (inactive) and 4.66 µM (inactive)
- GI50 (HT-29): 20.8 µM (inactive) and 41.5 µM (inactive)
- GI50 (UO-31): 24 µM (inactive) and 28.5 µM (inactive)
- GI50 (A498): > 100 µM (inactive) and 53.1 µM (inactive)
- GI50 (SNB-19): > 100 µM (inactive) and 121 µM (inactive)
- GI50 (MCF7): 19.3 µM (inactive)
- GI50 (786-0): 29.2 µM (inactive)
- GI50 (LOX IMVI): 14.5 µM (inactive) and 18.3 µM (inactive)
- GI50 (CCRF-CEM): 3.08 µM (inactive) and 1.94 µM (inactive)
- GI50 (SNB-75): 30.1 µM (inactive) and 42.2 µM (inactive)
- GI50 (SK-MEL-2): 21.9 µM (inactive) and 13.7 µM (inactive)
- GI50 (M14): 19.2 µM (inactive)
- GI50 (SR): 14.6 µM (inactive)
- GI50 (ACHN): > 100 µM (inactive)
- GI50 (NCI/ADR-RES): 7.14 µM (inactive)
- GI50 (NCI-H522): 21.2 µM (inactive) and 14.2 µM (inactive)
- GI50 (SF-539): 24.4 µM (inactive) and 19.5 µM (inactive)
- GI50 (HOP-62): > 100 µM (inactive) and 69.2 µM (inactive)
- GI50 (A549): 73.3 µM (inactive)
- GI50 (RXF 631): > 100 µM (inactive)

SMILES: CC(C)C(CCOS(=O)(=O)O)CCC(C)[C@H]1[C@@H](O)C(O)C2[C@]3(O)C[C@@H](O)C4(O)C[C@@H](O)CC[C@]4(C)C3CC[C@@]21C (stereo partly specified)
- GI50 (UACC-62): > 100 µM (inactive)
- GI50 (SF-268): > 100 µM (inactive)
- GI50 (Malme-3M): > 100 µM (inactive)
- GI50 (RPMI-8226): > 100 µM (inactive)
- GI50 (OVCAR-4): > 100 µM (inactive)
- GI50 (SK-MEL-28): > 100 µM (inactive)
- GI50 (COLO 205): > 100 µM (inactive)
- GI50 (NCI-H226): > 100 µM (inactive)
- GI50 (DLD-1): > 100 µM (inactive)
- GI50 (SF-295): > 100 µM (inactive)
- GI50 (TK-10): > 100 µM (inactive)
- GI50 (SNB-78): > 100 µM (inactive)
- GI50 (EKVX): > 100 µM (inactive)
- GI50 (IGROV-1): > 100 µM (inactive)
- GI50 (HL-60): > 100 µM (inactive)
- GI50 (HCC 2998): > 100 µM (inactive)
- GI50 (SK-OV-3): > 100 µM (inactive)
- GI50 (LXFL 529): > 100 µM (inactive)
- GI50 (HOP-18): > 100 µM (inactive)
- GI50 (SK-MEL-5): > 100 µM (inactive)
- GI50 (SN12C): > 100 µM (inactive)
- GI50 (DMS-114): > 100 µM (inactive)
- GI50 (OVCAR-3): > 100 µM (inactive)
- GI50 (NCI-H23): > 100 µM (inactive)
- GI50 (K562): > 100 µM (inactive)
- GI50 (XF498): > 100 µM (inactive)
- GI50 (HOP-92): > 100 µM (inactive)
- GI50 (HT-29): > 100 µM (inactive)
- GI50 (M19-MEL): > 100 µM (inactive)
- GI50 (U-251): > 100 µM (inactive)
- GI50 (UO-31): > 100 µM (inactive)
- GI50 (CAKI-1): > 100 µM (inactive)
- GI50 (DMS-273): > 100 µM (inactive)
- GI50 (NCI-H460): > 100 µM (inactive)
- GI50 (RXF 393): > 100 µM (inactive)
- GI50 (SNB-19): > 100 µM (inactive)
- GI50 (786-0): > 100 µM (inactive)
- GI50 (LOX IMVI): > 100 µM (inactive)
- GI50 (CCRF-CEM): > 100 µM (inactive)
- GI50 (KM12): > 100 µM (inactive)
- GI50 (HCT-116): > 100 µM (inactive)
- GI50 (SK-MEL-2): > 100 µM (inactive)
- GI50 (M14): > 100 µM (inactive)
- GI50 (SR): > 100 µM (inactive)
- GI50 (ACHN): > 100 µM (inactive)
- GI50 (NCI-H522): > 100 µM (inactive)
- GI50 (HCT-15): > 100 µM
- GI50 (SF-539): > 100 µM (inactive)
- GI50 (SW-620): > 100 µM (inactive)
- GI50 (HOP-62): > 100 µM (inactive)
- GI50 (A549): > 100 µM (inactive)
- GI50 (KM-20L2): > 100 µM (inactive)
- GI50 (OVCAR-8): > 100 µM (inactive)

Reference: ChEMBL document CHEMBL1201862, “PubChem BioAssay data set” (2004)
